Experiment [1] deals with T1, DNA gyrase subunit A (Staphylococcus aureus, UniProt P20831).
T1 construct: gene gyrA; recombinant DNA gyrase (A and B subunits; supercoiling assay kit); with DNA gyrase subunit B
Description: gyrase supercoiling assay, positive control at […]. Format: biochemical.

Experiment [2] deals with T2, DNA gyrase (Staphylococcus aureus, UniProt P0A0K8+P20831).
T2 construct: gene gyrA; recombinant DNA gyrase (A and B subunits; supercoiling assay kit); with DNA gyrase subunits A and B together (holoenzyme; target subunit not determined)
Description: gyrase supercoiling assay of relaxed pBR322, agarose gel. In kind it is biochemical.

Each structure is given as a SMILES string.

T2 sequence (P20831 whole entry): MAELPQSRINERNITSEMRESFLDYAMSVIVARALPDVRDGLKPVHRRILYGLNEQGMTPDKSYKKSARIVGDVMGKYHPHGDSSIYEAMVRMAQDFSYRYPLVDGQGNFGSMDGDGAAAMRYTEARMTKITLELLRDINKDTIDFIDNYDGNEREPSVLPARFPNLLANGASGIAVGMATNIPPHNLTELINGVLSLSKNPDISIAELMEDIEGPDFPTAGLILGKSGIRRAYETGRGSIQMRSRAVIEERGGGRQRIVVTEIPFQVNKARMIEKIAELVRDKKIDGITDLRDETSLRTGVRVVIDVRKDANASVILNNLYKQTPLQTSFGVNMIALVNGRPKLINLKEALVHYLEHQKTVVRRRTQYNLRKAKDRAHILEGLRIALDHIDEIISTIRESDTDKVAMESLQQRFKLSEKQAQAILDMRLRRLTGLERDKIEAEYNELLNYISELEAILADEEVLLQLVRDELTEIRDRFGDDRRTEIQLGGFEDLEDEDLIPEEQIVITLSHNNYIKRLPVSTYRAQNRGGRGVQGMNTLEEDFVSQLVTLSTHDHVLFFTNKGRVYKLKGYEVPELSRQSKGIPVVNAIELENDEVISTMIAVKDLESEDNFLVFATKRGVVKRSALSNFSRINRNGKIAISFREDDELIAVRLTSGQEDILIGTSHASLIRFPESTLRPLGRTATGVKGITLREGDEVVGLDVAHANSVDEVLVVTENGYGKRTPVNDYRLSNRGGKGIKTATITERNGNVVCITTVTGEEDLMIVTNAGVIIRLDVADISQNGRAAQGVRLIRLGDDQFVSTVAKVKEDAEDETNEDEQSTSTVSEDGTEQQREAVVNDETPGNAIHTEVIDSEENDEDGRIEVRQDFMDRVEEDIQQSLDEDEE
T2 sequence (P0A0K8 2-644): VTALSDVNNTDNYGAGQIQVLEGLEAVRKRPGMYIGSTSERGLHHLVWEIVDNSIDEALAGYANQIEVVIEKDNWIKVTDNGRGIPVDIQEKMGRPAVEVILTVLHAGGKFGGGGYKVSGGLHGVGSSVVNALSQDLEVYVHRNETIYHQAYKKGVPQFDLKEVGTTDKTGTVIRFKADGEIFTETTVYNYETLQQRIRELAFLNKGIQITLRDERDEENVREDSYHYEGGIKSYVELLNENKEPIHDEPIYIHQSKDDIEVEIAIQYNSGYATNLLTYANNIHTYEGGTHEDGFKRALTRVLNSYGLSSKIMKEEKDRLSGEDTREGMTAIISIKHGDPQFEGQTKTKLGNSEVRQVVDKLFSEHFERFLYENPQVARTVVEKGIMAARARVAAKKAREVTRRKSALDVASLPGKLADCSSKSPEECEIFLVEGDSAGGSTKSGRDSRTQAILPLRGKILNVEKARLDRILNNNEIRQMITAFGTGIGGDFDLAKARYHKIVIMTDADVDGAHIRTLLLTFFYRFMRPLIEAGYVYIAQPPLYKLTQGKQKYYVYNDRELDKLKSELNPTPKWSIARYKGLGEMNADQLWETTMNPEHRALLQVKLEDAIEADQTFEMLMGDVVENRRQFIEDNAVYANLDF
T1 sequence (P20831 whole entry): as the sequence (P20831 whole entry) above

In the case of `O=C(O)c1cn(C2CC2)c2cc(N3CCNCC3)c(F)cc2c1=O` [ciprofloxacin], in experiment [1], the “gyrase supercoiling assay, positive control at 30 μM” value is listed as “Ciprofloxacin was used as the positive control since it blocks gyrase acting on the A subunit”.
As to `O=C(NCCSSCCNC(=O)/C(Cc1c[nH]c2ccc(Br)cc12)=N/O)/C(Cc1c[nH]c2ccc(Br)cc12)=N/O` [UVI5008], the IC50 in experiment [2] stood at 20.4 µM. This counts as double-digit micromolar.

What is called IC50 is the concentration at which inhibition is half-maximal. The low end stands for greater potency, the high end for weaker potency.

(Values after PMC6120918, “Epigenetic modulator UVI5008 inhibits MRSA by interfering with bacterial gyrase” (Scientific Reports, 2018).)
